Results taken from ChEMBL document CHEMBL5523757, “Discovery, Synthesis, and Activity Evaluation of Novel Five-Membered Sulfur-Containing Heterocyclic Nucleosides as Potential Anticancer Agents In Vitro and In Vivo” (J Med Chem, 2024).

Experiments:
MCF7 = test: Antiproliferative activity against human MCF7 cells assessed as inhibition of cell growth incubated for 48 hrs by CCK-8 assay; format: functional, cell-based; conditions: Homo sapiens, MCF7, 48 h
[1] = Acute toxicity in female BALB/c mouse assessed as animal death at 200 to 400 mg/kg,ip observed after 1 day; format: organism-based; conditions: in vivo, 24 h, dose 200-400 mg/kg
HepG2 = test: Antiproliferative activity against human HepG2 cells assessed as inhibition of cell growth incubated for 48 hrs by CCK-8 assay; format: functional, cell-based; conditions: Homo sapiens, HepG2, 48 h
[2] = Toxicity in BALB/c mouse xenografted with human HeLa cells assessed as histopathological change in liver at 15 to 60 mg/kg,ip once daily for 14 days by hematoxylin and eosin staining analysis; format: organism-based; conditions: in vivo, 336 h, dose 15-60 mg/kg, time 14 day
HCT-116 = test: Antiproliferative activity against human HCT-116 cells assessed as inhibition of cell growth incubated for 48 hrs by CCK-8 assay; format: functional, cell-based; conditions: Homo sapiens, HCT-116, 48 h
[3] = Acute toxicity in female BALB/c mouse assessed as animal death at 200 to 600 mg/kg,ip observed after 2 day; format: organism-based; conditions: in vivo, 48 h, dose 200-600 mg/kg
HeLa [4] = test: Induction of apoptosis in human HeLa cells at 2 to 8 uM incubated for 48 hrs by annexin V-FITC/PI staining based flow cytometry relative to control; format: functional; conditions: dose 2-8 µM
HeLa [5] = test: Antiproliferative activity against human HeLa cells assessed as inhibition of cell growth incubated for 48 hrs by CCK-8 assay; format: functional, cell-based; conditions: hela
[6] = Toxicity in BALB/c mouse xenografted with human HeLa cells assessed as change in body weight at 15 to 60 mg/kg,ip once daily for 14 days; format: organism-based; conditions: in vivo, 336 h, dose 15-60 mg/kg, time 14 day
[7] = Acute toxicity in BALB/c mouse assessed as animal survival at 600 mg/kg,ip observed after 14 days; format: organism-based; conditions: in vivo, time 14 day
[8] = Acute toxicity in male BALB/c mouse assessed as animal death at 200 to 1000 mg/kg,ip observed for 4 to 15 days; format: organism-based; conditions: in vivo, dose lower 200 mg/kg, time lower 4 day, dose upper 1000 mg/kg, time upper 15 day
[9] = Acute toxicity in male BALB/c mouse assessed as animal death at 200 to 400 mg/kg,ip observed after 1 day; format: organism-based; conditions: in vivo, 24 h, dose 200-400 mg/kg
[10] = Half life in BALB/c mouse plasma at 10 to 200 uM; format: ADME, cell-free; conditions: dose 10-200 µM
[11] = Acute toxicity in male BALB/c mouse assessed as animal death at 200 to 600 mg/kg,ip observed after 2 day; format: organism-based; conditions: in vivo, 48 h, dose 200-600 mg/kg
[12] = Acute toxicity in BALB/c mouse assessed as animal survival at 1000 mg/kg,ip observed after 14 days; format: organism-based; conditions: in vivo, time 14 day
PANC-1 = test: Antiproliferative activity against human PANC-1 cells assessed as inhibition of cell growth incubated for 48 hrs by CCK-8 assay; format: functional, cell-based; conditions: panc-1
[13] = Toxicity in BALB/c mouse xenografted with human HeLa cells assessed as histopathological change in heart at 15 to 60 mg/kg,ip once daily for 14 days by hematoxylin and eosin staining analysis; format: organism-based; conditions: in vivo, 336 h, dose 15-60 mg/kg, time 14 day
[14] = Acute toxicity in female BALB/c mouse assessed as animal death at 200 to 1000 mg/kg,ip observed after 3 days; format: organism-based; conditions: in vivo, 72 h, dose 200-1000 mg/kg, time 3 day
[15] = Acute toxicity in BALB/c mouse assessed as animal survival at 800 mg/kg,ip observed after 14 days; format: organism-based; conditions: in vivo, time 14 day
[16] = Acute toxicity in BALB/c mouse assessed as animal survival at 200 mg/kg,ip observed after 14 days; format: organism-based; conditions: in vivo, time 14 day
[17] = Toxicity in BALB/c mouse xenografted with human HeLa cells assessed as histopathological change in lung at 15 to 60 mg/kg,ip once daily for 14 days by hematoxylin and eosin staining analysis; format: organism-based; conditions: in vivo, 336 h, dose 15-60 mg/kg, time 14 day
A549 = test: Antiproliferative activity against human A549 cells assessed as inhibition of cell growth incubated for 48 hrs by CCK-8 assay; format: functional, cell-based; conditions: Homo sapiens, A549, 48 h
[18] = Acute toxicity in BALB/c mouse assessed as animal survival at 400 mg/kg,ip observed after 14 days; format: organism-based; conditions: in vivo, time 14 day
[19] = Acute toxicity in BALB/c mouse assessed as lethal dose at ip administration observed after 14 days; format: organism-based; conditions: in vivo, time 14 day
[20] = Toxicity in BALB/c mouse xenografted with human HeLa cells assessed as histopathological change in spleen at 15 to 60 mg/kg,ip once daily for 14 days by hematoxylin and eosin staining analysis; format: organism-based; conditions: in vivo, 336 h, dose 15-60 mg/kg, time 14 day
[21] = Toxicity in BALB/c mouse xenografted with human HeLa cells assessed as histopathological change in kidney at 15 to 60 mg/kg,ip once daily for 14 days by hematoxylin and eosin staining analysis; format: organism-based; conditions: in vivo, 336 h, dose 15-60 mg/kg, time 14 day
[22] = Acute toxicity in male BALB/c mouse assessed as animal death at 200 to 1000 mg/kg,ip observed after 3 days; format: organism-based; conditions: in vivo, 72 h, dose 200-1000 mg/kg, time 3 day
[23] = Acute toxicity in female BALB/c mouse assessed as animal death at 1000 mg/kg,ip observed after 2 day; format: organism-based; conditions: in vivo, 48 h
[24] = Acute toxicity in female BALB/c mouse assessed as animal death at 200 to 1000 mg/kg,ip observed for 4 to 15 days; format: organism-based; conditions: in vivo, dose lower 200 mg/kg, time lower 4 day, dose upper 1000 mg/kg, time upper 15 day

CCOC(=O)C[C@H]1CSC[C@]1(C(=O)OCC)n1cnc2c(Cl)nc(Cl)nc21 (racemic)
IC50 (MCF7): 5.54 µM
Activity [1]: Non-Toxic
IC50 (HepG2): 32.7 µM
Activity [2]: Non-Toxic
IC50 (HCT-116): 3.82 µM
Activity [3]: Non-Toxic
Activity (HeLa [4]): 8.05%
IC50 (HeLa [5]): 2.8 µM
Activity [6]: Non-Toxic
survival at 336 h [7]: 50%
Activity [8]: Non-Toxic
Activity [9]: Non-Toxic
half-life at up to 200 µM [10]: 3 h
Activity [11]: Non-Toxic
survival at 336 h [12]: 0%
IC50 (PANC-1): 13 µM
Activity [13]: Non-Toxic
Activity [14]: Non-Toxic
survival at 336 h [15]: 10%
survival at 336 h [16]: 100%
Activity [17]: Non-Toxic
IC50 (A549): 46 µM
survival at 336 h [18]: 100%
LD50 at 336 h [19]: 613 mg/kg
Activity [20]: Non-Toxic
Activity [21]: Non-Toxic
Activity [22]: Non-Toxic
Activity [23]: Non-Toxic
Activity [24]: Non-Toxic
